According to the supplement of paper PMC10307832:

Key:
Assay in all cases: relative viability (nuclei count vs DMSO), 5 days (fraction); higher = more cells survive
[1] = compound: CCn1c(-c2nonc2N)nc2c(C#CC(C)(C)O)ncc(OC[C@H]3CCCNC3)c21 + CC(=O)Nc1cccc(-n2c(=O)n(C3CC3)c(=O)c3c(Nc4ccc(I)cc4F)n(C)c(=O)c(C)c32)c1 [Trametinib] (partner 0.02 µM)
Method in brief: (§1)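 Dosing by pin tool came one day after lung cancer cell lines were seeded in 1536-well plates, using either one drug or a fixed anchor-drug dose plus five library-drug doses (not always all listed) in √10 steps. After 5 days, nuclei were counted on 4× images. Relative viability is treated-well nuclei count divided by vehicle-well nuclei count, and values are medians of duplicate plates.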

BAM7 + Decitabine = compound: CCOC1=CC=CC=C1N=NC2=C(NN(C2=O)C3=NC(=CS3)C4=CC=CC=C4)C [BAM7] + Nc1ncn([C@H]2C[C@H](O)[C@@H](CO)O2)c(=O)n1 [Decitabine] (partner 2 µM)
Method in brief: as §1

BAM7 + Pictilisib = compound: CCOC1=CC=CC=C1N=NC2=C(NN(C2=O)C3=NC(=CS3)C4=CC=CC=C4)C [BAM7] + CS(=O)(=O)N1CCN(Cc2cc3nc(-c4cccc5[nH]ncc45)nc(N4CCOCC4)c3s2)CC1 [Pictilisib] (partner 1 µM)
Method in brief: as §1

[2] = compound: CCn1c(-c2nonc2N)nc2c(C#CC(C)(C)O)ncc(OC[C@H]3CCCNC3)c21 + C[C@@H](Oc1cc(-c2cnn(C3CCNCC3)c2)cnc1N)c1c(Cl)ccc(F)c1Cl [Crizotinib] (partner 1 µM)
Method in brief: as §1

For UMC-11, which relative viability ([1]; first compound 0.01 µM) is on record?
The relative viability was 0.765.

And the relative viability ([1]; first compound 0.03162 µM)?
Its relative viability is 0.701.

And the relative viability ([1]; first compound 0.1 µM)?
The relative viability was 0.754.

What about the relative viability ([1]; first compound 0.3162 µM) of the same cell line?
Its relative viability is 0.754.

And the relative viability ([1]; first compound 1 µM)?
The relative viability was 0.618.

What about the relative viability (BAM7 + Decitabine; first compound 0.5 µM) of the same cell line?
Its relative viability is 0.603.

What about the relative viability (BAM7 + Decitabine; first compound 5 µM) of the same cell line?
Its relative viability is 0.687.

And the relative viability (BAM7 + Decitabine; first compound 15.81 µM)?
Its relative viability is 0.618.

And the relative viability (BAM7 + Decitabine; first compound 50 µM)?
Its relative viability is 0.635.

And the relative viability (BAM7 + Pictilisib; first compound 0.5 µM)?
The relative viability was 0.856.

And the relative viability (BAM7 + Pictilisib; first compound 5 µM)?
Its relative viability is 0.897.

And the relative viability (BAM7 + Pictilisib; first compound 15.81 µM)?
The relative viability was 0.85.

And the relative viability (BAM7 + Pictilisib; first compound 50 µM)?
Its relative viability is 0.892.

And the relative viability ([2]; first compound 0.01 µM)?
Its relative viability is 0.704.

What about the relative viability ([2]; first compound 0.03162 µM) of the same cell line?
The relative viability was 0.695.

What about the relative viability ([2]; first compound 0.1 µM) of the same cell line?
The relative viability was 0.65.

What about the relative viability ([2]; first compound 0.3162 µM) of the same cell line?
Its relative viability is 0.645.

And the relative viability ([2]; first compound 1 µM)?
Its relative viability is 0.547.
